Data set [1] deals with T1, ACK (Homo sapiens, UniProt Q07912).
T1 construct: purchased Carna Biosciences
Description: Off-chip Mobility Shift Assay. Type of data set: biochemical. The note with it: read-out: IC50, recombinant ACK activity.

The target in data set [2] is T2, BTK (Homo sapiens, UniProt Q06187).
T2 construct: purchased Carna Biosciences
Description: Off-chip Mobility Shift Assay. The data set is classed as biochemical. The note with it: read-out: IC50, recombinant BTK activity.

Data set [3] addresses T3, PDGFRα (Homo sapiens, UniProt P16234).
T3 construct: purchased Carna Biosciences
Nature of the data set: Off-chip Mobility Shift Assay. Type of data set: biochemical. The note with it: read-out: IC50, recombinant PDGFRα activity.

Data set [4] concerns the target T4, PIK3CA/PIK3R1 (Homo sapiens, UniProt P42336).
T4 construct: purchased Carna Biosciences
Description: Off-chip Mobility Shift Assay. Type of data set: biochemical. The note with it: read-out: IC50, recombinant PIK3CA/PIK3R1 activity.

For data set [5], the system named is RAF1. Nature of the data set: Off-chip Mobility Shift Assay. Type of data set: biochemical. The note with it: 10 nM.
Data set [6] can be described thus: Metabolic stability in human liver microsomes. The note with it: for metabolic stability as compared to dasatinib: human liver microsomes. Type of data set: in vitro ADME. How it is done: FIG. 1. Metabolic stability of compounds in human liver microsomal incubations. […] Concentrations at specified times were determined by LC-MS/MS.
The incubation reactions at various time points were quenched by adding 2× volumes of acetonitrile containing 100 nM reserpine. The quenched incubation samples were centrifuged at 4000 RPM for 10 min, and the supernatants injected for LC/MS/MS analysis. LC/MS/MS analysis was carried out on a AB Sciex 4000 Q Trap LC/MS/MS system coupled with Shimadzu Prominence UFLCXR 20 series (including a CBM-20A controller, two LC-20ADXR solvent delivery units, SIL-20AC HT autosampler, CTO-20A column oven, and a SPD-20A UV detector).

Data set [7] addresses T5, ABL (Homo sapiens, UniProt P00519).
T5 construct: purchased Carna Biosciences
Nature of the data set: Off-chip Mobility Shift Assay. Type of data set: biochemical. The note with it: read-out: IC50, recombinant ABL activity.

Data set [8] has as its target T6, ABL(E255K) (Homo sapiens, UniProt P00519, E255K).
T6 construct: purchased Carna Biosciences
Description: Off-chip Mobility Shift Assay. The note with it: read-out: IC50, recombinant ABL (E255K) activity. Type of data set: biochemical.

Data set [9] addresses T7, BTK (C481S) (Homo sapiens, UniProt Q06187, C481S).
T7 construct: purchased Carna Biosciences
Nature of the data set: Off-chip Mobility Shift Assay. The data set is classed as biochemical. Particulars: read-out: IC50, recombinant BTK (C481S) activity.

A short description of data set [10]: Pharmacokinetics in Sprague-Dawley rats, 2-in-1 dosing. The data set is classed as in vivo. The note with it: for half-life: read-out: t½ (converted). How it is done: Sprague-Dawley rats (approximate weight 275-300 g, N=3) were dosed intravenously at 5 mL/kg and orally at 10 mL/kg with the above dosing solutions. Blood samples were collected into tubes containing EDTA as the anticoagulant at 0, 0.25 (intravenous only), 0.5, 1, 2, 4, 8, 10, and 24 h post-dosing, and plasma samples were prepared by centrifugation. The plasma samples were mixed with 3× volumes of acetonitrile containing 100 nM reserpine as the internal standard, and centrifuged at 4000 RPM for 15 min. The supernatants were injected for LC/MS analysis which were carried out on a AB Sciex 4000 Q Trap LC/MS/MS system coupled with Shimadzu Prominence UFLCXR 20 series (including a CBM-20A controller, two LC-20ADXR solvent delivery units, SIL-20AC HT autosampler, CTO-20A column oven, and a SPD-20A UV detector). The samples were separated on a Phenomenex Columbus column (C18, 4 μm, 50×2 mm) eluted with two solvent systems: 2 mM ammonium acetate in water containing 0.1% formic acid (A) and methanol (B) at a linear gradient starting with 25% B. Electrospray ionization in positive mode was used to acquire LC/MS/MS data.

Data set [11] in a line: Lung tissue and plasma concentration ratios in mice. The data set is classed as in vivo, CD-1 mouse. The note with it: single oral dose 5 mg/kg, 2-in-1 with dasatinib, all time points tested. How it is done: CD-1 mouse (approximate weight 30 g, N=3) were dosed by oral gavage at 10 mL/kg. Blood samples were collected into tubes containing EDTA as the anticoagulant at 1, 2, 4, 10 h post-dosing for Compound X, and predose, 1, 2, 3, 8, 10 and 24 h post-dosing for Compound XI. The plasma samples were prepared by centrifugation. Lung samples were also collected at each of the above time points. The lung samples were homogenated in 4× distilled water (v/w). The plasma samples and the homogenated lung tissue samples were mixed with 3× volumes of acetonitrile containing 100 nM reserpine as the internal standard, and centrifuged at 4000 RPM for 15 min. The supernatants were injected for LC/MS analysis which were carried out on a AB Sciex 4000 Q Trap LC/MS/MS system coupled with Shimadzu Prominence UFLCXR 20 series (including a CBM-20A controller, two LC-20ADXR solvent delivery units, SIL-20AC HT autosampler, CTO-20A column oven, and a SPD-20A UV detector). The samples were separated on a Phenomenex Columbus column (C18, 4 μm, 50×2 mm) eluted with two solvent systems: 2 mM ammonium acetate in water containing 0.1% formic acid (A) and methanol (B) at a linear gradient starting at 25%. Electrospray ionization in positive mode was used to acquire LC/MS/MS data.

Where [12] appears, read: Sprague-Dawley rats, intravenous.
[13] abbreviates: Sprague-Dawley, rat, plasma, iv, 1 mg/kg, intravenous 1 mg/kg, single dose, plasma (Table 3).
[14] abbreviates: Sprague-Dawley, rat, plasma, po, 5 mg/kg, PO 5 mg/kg, single dose, plasma (Table 3).
[15] abbreviates: Sprague-Dawley, rat, PO 5 mg/kg, single dose, plasma (Table 3).

Structures are written as SMILES. Where two headings read alike, the source gives them in different places.

T2 sequence (Q06187 whole entry): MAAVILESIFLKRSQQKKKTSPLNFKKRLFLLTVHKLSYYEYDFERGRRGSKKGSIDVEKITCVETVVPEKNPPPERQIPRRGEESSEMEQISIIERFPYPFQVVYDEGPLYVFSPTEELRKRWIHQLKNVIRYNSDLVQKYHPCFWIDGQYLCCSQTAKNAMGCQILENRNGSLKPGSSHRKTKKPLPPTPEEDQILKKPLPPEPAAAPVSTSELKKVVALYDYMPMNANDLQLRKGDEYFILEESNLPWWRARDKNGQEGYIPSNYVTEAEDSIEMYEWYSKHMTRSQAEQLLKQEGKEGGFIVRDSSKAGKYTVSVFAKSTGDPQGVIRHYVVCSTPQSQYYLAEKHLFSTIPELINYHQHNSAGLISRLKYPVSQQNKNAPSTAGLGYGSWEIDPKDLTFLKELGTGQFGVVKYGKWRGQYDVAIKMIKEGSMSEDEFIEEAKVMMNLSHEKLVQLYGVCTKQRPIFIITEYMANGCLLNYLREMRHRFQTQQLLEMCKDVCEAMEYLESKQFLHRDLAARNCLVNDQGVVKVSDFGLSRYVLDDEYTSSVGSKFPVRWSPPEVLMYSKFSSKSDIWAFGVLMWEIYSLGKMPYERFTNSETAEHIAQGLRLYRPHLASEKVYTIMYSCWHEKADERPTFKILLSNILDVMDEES
T6 sequence (P00519 whole entry E255K): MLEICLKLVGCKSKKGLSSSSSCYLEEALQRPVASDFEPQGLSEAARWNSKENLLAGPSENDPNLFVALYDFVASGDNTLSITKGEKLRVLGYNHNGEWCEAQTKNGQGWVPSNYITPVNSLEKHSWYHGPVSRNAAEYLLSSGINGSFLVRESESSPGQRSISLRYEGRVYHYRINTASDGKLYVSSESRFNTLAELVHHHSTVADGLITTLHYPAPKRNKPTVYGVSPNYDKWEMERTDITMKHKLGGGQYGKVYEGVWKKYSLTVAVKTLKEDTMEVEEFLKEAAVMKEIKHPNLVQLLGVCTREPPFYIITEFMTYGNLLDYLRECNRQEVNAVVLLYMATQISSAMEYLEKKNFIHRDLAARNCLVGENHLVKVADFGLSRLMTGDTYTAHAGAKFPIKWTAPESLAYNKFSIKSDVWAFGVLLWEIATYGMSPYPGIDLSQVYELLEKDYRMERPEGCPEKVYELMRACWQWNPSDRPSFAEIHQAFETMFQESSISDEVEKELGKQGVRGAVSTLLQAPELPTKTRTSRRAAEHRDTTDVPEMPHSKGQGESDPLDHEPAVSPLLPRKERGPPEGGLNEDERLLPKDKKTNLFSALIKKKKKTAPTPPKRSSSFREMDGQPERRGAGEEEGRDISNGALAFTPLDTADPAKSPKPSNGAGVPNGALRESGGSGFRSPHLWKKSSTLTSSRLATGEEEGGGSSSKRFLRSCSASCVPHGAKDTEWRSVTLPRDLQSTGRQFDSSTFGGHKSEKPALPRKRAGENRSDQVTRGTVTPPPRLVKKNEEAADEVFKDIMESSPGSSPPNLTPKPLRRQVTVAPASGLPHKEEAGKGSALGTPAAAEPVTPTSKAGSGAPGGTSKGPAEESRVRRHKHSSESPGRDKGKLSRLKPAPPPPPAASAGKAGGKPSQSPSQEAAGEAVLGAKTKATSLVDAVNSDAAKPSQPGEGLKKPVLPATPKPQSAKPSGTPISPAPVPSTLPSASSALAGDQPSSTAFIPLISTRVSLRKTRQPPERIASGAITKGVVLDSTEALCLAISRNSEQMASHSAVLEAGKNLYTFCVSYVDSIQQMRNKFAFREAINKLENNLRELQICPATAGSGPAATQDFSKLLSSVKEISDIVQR
T5 sequence (P00519 whole entry): as the sequence (P00519 whole entry E255K) above, with K255E counted along it
T7 sequence (Q06187 whole entry C481S): as the sequence (Q06187 whole entry) above, with C481S counted along it
T1 sequence (Q07912 whole entry): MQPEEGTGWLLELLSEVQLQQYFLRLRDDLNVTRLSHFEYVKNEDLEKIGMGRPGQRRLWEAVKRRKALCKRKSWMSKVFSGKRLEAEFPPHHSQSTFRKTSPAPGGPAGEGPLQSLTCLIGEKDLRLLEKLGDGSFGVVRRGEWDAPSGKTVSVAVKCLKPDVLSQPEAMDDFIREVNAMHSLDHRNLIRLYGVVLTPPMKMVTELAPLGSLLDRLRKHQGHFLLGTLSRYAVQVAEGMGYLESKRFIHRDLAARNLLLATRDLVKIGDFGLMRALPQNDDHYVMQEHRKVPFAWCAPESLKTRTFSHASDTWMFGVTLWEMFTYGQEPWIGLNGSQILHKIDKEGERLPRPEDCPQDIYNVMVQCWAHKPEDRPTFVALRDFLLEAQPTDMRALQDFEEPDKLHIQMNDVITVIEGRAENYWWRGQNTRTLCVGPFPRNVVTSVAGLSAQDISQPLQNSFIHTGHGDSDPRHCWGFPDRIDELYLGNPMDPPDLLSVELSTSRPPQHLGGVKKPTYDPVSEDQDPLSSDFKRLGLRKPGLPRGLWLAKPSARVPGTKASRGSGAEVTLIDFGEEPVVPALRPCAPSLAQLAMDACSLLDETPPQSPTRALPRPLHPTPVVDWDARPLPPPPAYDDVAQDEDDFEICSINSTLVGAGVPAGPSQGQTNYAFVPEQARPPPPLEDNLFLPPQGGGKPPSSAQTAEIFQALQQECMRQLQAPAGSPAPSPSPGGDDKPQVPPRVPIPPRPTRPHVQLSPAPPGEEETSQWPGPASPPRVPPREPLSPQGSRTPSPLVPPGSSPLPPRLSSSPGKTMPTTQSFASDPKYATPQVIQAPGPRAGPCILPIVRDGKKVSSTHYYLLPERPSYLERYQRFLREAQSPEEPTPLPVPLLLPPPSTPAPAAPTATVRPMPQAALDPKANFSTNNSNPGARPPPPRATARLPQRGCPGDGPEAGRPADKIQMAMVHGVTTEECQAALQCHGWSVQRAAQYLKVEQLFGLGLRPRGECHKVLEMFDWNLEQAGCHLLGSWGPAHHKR
T3 sequence (P16234 24-1089): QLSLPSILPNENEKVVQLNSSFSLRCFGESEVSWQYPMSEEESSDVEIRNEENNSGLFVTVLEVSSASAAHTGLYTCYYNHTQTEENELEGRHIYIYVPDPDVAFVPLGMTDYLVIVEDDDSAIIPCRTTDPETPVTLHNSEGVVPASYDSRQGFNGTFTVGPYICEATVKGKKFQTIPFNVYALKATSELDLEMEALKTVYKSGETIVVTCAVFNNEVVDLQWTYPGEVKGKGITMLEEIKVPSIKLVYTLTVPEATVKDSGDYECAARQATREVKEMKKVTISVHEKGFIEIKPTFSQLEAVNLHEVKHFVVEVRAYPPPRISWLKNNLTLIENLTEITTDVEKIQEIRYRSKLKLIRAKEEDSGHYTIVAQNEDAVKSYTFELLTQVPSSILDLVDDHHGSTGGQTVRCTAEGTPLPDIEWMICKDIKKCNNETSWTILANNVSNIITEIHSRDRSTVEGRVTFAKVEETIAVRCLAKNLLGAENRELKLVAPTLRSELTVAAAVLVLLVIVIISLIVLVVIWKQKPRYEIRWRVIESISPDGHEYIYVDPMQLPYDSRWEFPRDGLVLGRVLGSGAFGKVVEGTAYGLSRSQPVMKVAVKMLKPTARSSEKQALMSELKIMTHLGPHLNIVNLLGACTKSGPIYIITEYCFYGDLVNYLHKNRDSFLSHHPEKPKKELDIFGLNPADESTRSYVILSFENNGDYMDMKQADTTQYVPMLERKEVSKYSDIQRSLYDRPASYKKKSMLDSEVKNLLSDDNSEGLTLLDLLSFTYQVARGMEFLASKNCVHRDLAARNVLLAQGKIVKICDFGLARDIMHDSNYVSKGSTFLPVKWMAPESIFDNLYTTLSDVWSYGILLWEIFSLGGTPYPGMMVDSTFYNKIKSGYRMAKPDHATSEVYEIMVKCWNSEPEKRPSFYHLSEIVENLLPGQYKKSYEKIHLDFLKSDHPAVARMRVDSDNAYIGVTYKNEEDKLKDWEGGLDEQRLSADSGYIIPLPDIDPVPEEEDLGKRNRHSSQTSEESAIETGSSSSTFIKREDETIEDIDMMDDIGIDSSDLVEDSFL

Regarding `[2H]c1cc(C)c(NC(=O)c2cnc(Nc3cc(N4CCCCC4)nc(C)n3)s2)c(Cl)c1` [Compound I, N-(2-chloro-4-deuterio-6-methyl-phenyl)-2-[[2-methyl-6-(1-piperidyl)pyrimidin-4-yl]amino]thiazole-5-carboxamide], the IC50 was about 0.5 nM in data set [1], about 0.2 nM in [2], about 1.4 nM in data set [3] and about 12 nM in data set [4]. For the same molecule, in data set [5], the “inhibition of RAF1” value is given as under 50%. For the same molecule, the “metabolic stability as compared to dasatinib” value in [6] is given as “significantly greater stability”.

In the case of `Cc1nc(Nc2ncc(C(=O)Nc3c(C)cccc3Cl)s2)cc(N2CC[C@@H](O)C2)n1` [Compound XI, N-(2-chloro-6-methylphenyl)-2-[[2-methyl-6-((R)-3-hydroxypyrrolidin-1-yl)pyrimidin-4-yl]amino]thiazole-5-carboxamide], the IC50 in [7] is under 1 nM. Further, the IC50 in data set [8] was under 1 nM. Further, the IC50 in [2] is under 1 nM. For the same molecule, the IC50 in [9] was under 1 nM. Besides, the “metabolic stability as compared to dasatinib” value in [6] was “significantly greater stability”. The microsomal CLint at 1 μM in [6] (human, liver microsomes, 1 μM, human liver microsomes 0.5 mg/mL, NADPH and UDPGA, 37° C., read-out: CLint (intrinsic clearance)) is under 24 µL/min/mg. The half-life at 1 μM in [6] (human, liver microsomes, 1 μM, human liver microsomes 0.5 mg/mL, NADPH and UDPGA, 37° C., read-out: In vitro t1/2) was over 0.983 h. Moreover, in data set [10] (setting [12]), the “intravenous plasma clearance compared to dasatinib and compound III” value was “much lower”; the “intravenous volume of distribution compared to dasatinib and compound III” value is recorded as “significantly lower”. For the same molecule, the clearance in data set [10] (Sprague-Dawley, rat, plasma, iv, 1 mg/kg, intravenous 1 mg/kg, single dose (Table 3), read-out: CL (plasma clearance) (converted)) was 6.77 mL/min/kg. For the same molecule, the Vd in [10] (Sprague-Dawley, rat, plasma, iv, 1 mg/kg, intravenous 1 mg/kg, single dose (Table 3), read-out: V (volume of distribution)) was found to be 1 L/kg. Also, in data set [10] (setting [13]), the area under the curve AUC(0-inf) is 2480 ± 243 ng·h/mL, the area under the curve AUC(0-t) worked out at 2480 ± 243 ng·h/mL and the half-life was 1.6 ± 0.2 h. In addition, in data set [10] (setting [14]), the area under the curve AUC(0-inf) stood at 1500 ± 273 ng·h/mL, the AUC(0-t) worked out at 1420 ± 343 ng·h/mL and the half-life was 6 ± 3.6 h. In data set [10] (Sprague-Dawley, rat, plasma, PO 5 mg/kg versus intravenous 1 mg/kg, AUCinf dose normalized (Table 3), read-out: F (percent oral bioavailability)), the bioavailability turned out to be 24 ± 33.1%. In [10] (setting [15]), the concentration peaked (Cmax) at 102 ± 86 ng/mL and the time to peak (Tmax) was determined as 0.5 h. In [11], the “ratio of lung tissue concentration to plasma concentration as compared to dasatinib” value is “significantly lower”.

The record behind these values is patent US20180099961A1, “PROTEIN KINASE INHIBITORS” (Princeton Drug Discovery Inc, priority 2016, published 2018).
